Reference: US20170050957A1, “4-AMINO-6-(HETEROCYCLIC)PICOLINATES AND 6-AMINO-2-(HETEROCYCLIC)PYRIMIDINE-4-CARBOXYLATES AND THEIR USE AS HERBICIDES” (Dow AgroSciences LLC, priority 2013, published 2017)
Where two headings read alike, the source gives them in different places.

Assays:
Assay type in all cases: in vivo
[1] = system: barnyardgrass (Echinochloa crs-galli); experiment: Pre-emergent Test I herbicidal activity; details: 4 Kg ai/ha
Experimental: (§1) Pre-emergent Test I Seeds of test species were planted into round plastic pots (5-inch diameter) containing sandy loam soil. After planting, all pots were sub-irrigated 16 h prior to compound application. Compounds were dissolved in a 97:3 v/v (volume/volume) mixture of acetone and dimethyl sulfoxide (DMSO) and diluted to the appropriate concentration in a final application solution containing water, acetone, isopropanol, DMSO and Agri-dex (crop oil concentrate) in a 59:23:15:1.0:1.5 v/v ratio and 0.02% w/v (weight/volume) of Triton X-155 to obtain the spray solution containing the highest application rate. The high application rate was serial diluted with the above application solution to provide delivery of the compound at rates 1/2×, 1/4× and 1/8× of the highest rate (equivalent to 4.0, 2.0, 1.0, and 0.5 kg/ha, respectively). Formulated compound (2.7 mL) was applied pipetted evenly over the soil surface followed by incorporation with water (15 mL). Following treatment, pots were returned to the greenhouse for the duration of the experiment. The greenhouse was programmed for an approximate 15 h photoperiod which was maintained at about 23-29° C. during the day and 22-28° C. during the night. Nutrients and water were added on a regular basis through surface irrigation and supplemental lighting was provided with overhead metal halide 1000-Watt lamps as necessary. Herbicidal effect ratings were obtained 14 days after treatment. All evaluations were made relative to appropriate controls on a scale of 0 to 100 where 0 represents no herbicidal effect and 100 represents plant death or lack of emergence from the soil.

[2] = system: giant foxtail (Setaria faberi); experiment: Pre-emergent Test I herbicidal activity; details: 4 Kg ai/ha
Experimental: as §1

[3] = system: ivyleaf morningglory (Ipomoea hederecea); experiment: Pre-emergent Test I herbicidal activity; details: 4 Kg ai/ha
Experimental: as §1

[4] = system: sunflower (Helianthus annuus); experiment: Pre-emergent Test I herbicidal activity; details: 4 Kg ai/ha
Experimental: as §1

wild oats (Avena fatua) = experiment: Pre-emergent Test I herbicidal activity; details: 4 Kg ai/ha
Experimental: as §1

[5] = system: Key Broadleaf Weed and Crop Species; experiment: Post-emergent Test II herbicidal activity (Table 15); details: post-emergence, 336 h, 140 g ai/ha, 14 d
Summary of the method: (§2)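 Visual injury rating (0 = none, 100 = complete kill) taken 14 d after treatment, relative to untreated plants. Compounds in acetone/DMSO with crop oil concentrate and Triton X-155 were track-sprayed at 187 L/ha onto seedlings at the first-second true leaf stage.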

[6] = system: Key Grass and Sedge Weeds as well as Grass Crops; experiment: Post-emergent Test II herbicidal activity (Table 16); details: post-emergence, 336 h, 14 d; for pest or weed control at 35 g/ha: 35 g ai/ha; for pest or weed control at 70 g/ha: 70 g ai/ha; for pest or weed control at 140 g/ha: 140 g ai/ha
Summary of the method: as §2

[7] = Cyperus esculentus, yellow nutsedge (Cyperus esculentus), read-out: Visual Growth Reduction (%) 14 Days After Application, CYPES
[8] = Echinochloa crus-galli, barnyardgrass (Echinochloa crus-galli), read-out: Visual Growth Reduction (%) 14 Days After Application, ECHCG
[9] = Oryza sativa, rice (Oryza sativa), read-out: Visual Growth Reduction (%) 14 Days After Application, ORYSA
[10] = Setaria faberi, giant foxtail (Setaria faberi), read-out: Visual Growth Reduction (%) 14 Days After Application, SETFA
[11] = Triticum aestivum, wheat, spring (Triticum aestivum), read-out: Visual Growth Reduction (%) 14 Days After Application, TRZAS
[12] = Zea mays, maize, corn (Zea mays), read-out: Visual Growth Reduction (%) 14 Days After Application, ZEAMX

With `Nc1c(F)c(-c2cccc3cc[nH]c23)nc(C(=O)O)c1Cl` [Compound 1.48] the “Visual Growth Reduction (%) 14 Days After Application, ECHCG” value [1] was “G (0-29)”, the “Visual Growth Reduction (%) 14 Days After Application, SETFA” value [2] was “G (0-29)” and the “Visual Growth Reduction (%) 14 Days After Application IPOHE” value [3] was “D (60-74)”. For the same compound, the “Visual Growth Reduction (%) 14 Days After Application HELAN” value [4] was “C (75-84)”, the “Visual Growth Reduction (%) 14 Days After Application AVEFA” value (wild oats (Avena fatua)) was “G (0-29)” and the pest or weed control at 140 g/ha ([5]; Abutilon theophrasti, velvetleaf (Abutilon theophrasti), read-out: Visual Growth Reduction (%) 14 Days After Application, ABUTH) was 0 to 29%. For the same compound, the pest or weed control at 140 g/ha ([5]; Amaranthus retroflexus, redroot pigweed (Amaranthus retroflexus), read-out: Visual Growth Reduction (%) 14 Days After Application, AMARE) was 0 to 29%, the pest or weed control at 140 g/ha ([5]; Brassica napus, oilseed rape, canola (Brassica napus), read-out: Visual Growth Reduction (%) 14 Days After Application, BRSNN) was 0 to 29% and the pest or weed control at 140 g/ha ([5]; Chenopodium album, lambsquarters (Chenopodium album), read-out: Visual Growth Reduction (%) 14 Days After Application, CHEAL) was 60 to 74%. For the same compound, the pest or weed control at 140 g/ha ([5]; Euphorbia heterophylla, wild poinsettia (Euphorbia heterophylla), read-out: Visual Growth Reduction (%) 14 Days After Application, EPHHL) was 0 to 29%, the pest or weed control at 140 g/ha ([5]; Helianthus annuus, sunflower (Helianthus annuus), read-out: Visual Growth Reduction (%) 14 Days After Application, HELAN) was 75 to 84% and the pest or weed control at 35 g/ha [6, 7] was 0 to 29%. The pest or weed control at 70 g/ha [6, 7] was 0 to 29%, the pest or weed control at 140 g/ha [6, 7] was 0 to 29% and the pest or weed control at 35 g/ha [6, 8] was 0 to 29%. The pest or weed control at 70 g/ha [6, 8] was 0 to 29%, the pest or weed control at 140 g/ha [6, 8] was 0 to 29% and the pest or weed control at 35 g/ha [6, 9] was 0 to 29%. It also gave a pest or weed control at 70 g/ha [6, 9] of 0 to 29%, a pest or weed control at 140 g/ha [6, 9] of 0 to 29% and a pest or weed control at 35 g/ha [6, 10] of 0 to 29%. The pest or weed control at 70 g/ha [6, 10] was 0 to 29%, the pest or weed control at 140 g/ha [6, 10] was 0 to 29% and the pest or weed control at 35 g/ha [6, 11] was 0 to 29%. It also gave a pest or weed control at 70 g/ha [6, 11] of 0 to 29%, a pest or weed control at 140 g/ha [6, 11] of 0 to 29% and a pest or weed control at 35 g/ha [6, 12] of 0 to 29%. It also gave a pest or weed control at 70 g/ha [6, 12] of 0 to 29% and a pest or weed control at 140 g/ha [6, 12] of 0 to 29%.
